Laboratory results: US9445605B2, “Method for disinfection or infection control against a non-enveloped virus” (Hiroshima University, priority 2006, dated 2016)

Legend:
[1] = test system: Coxsackie virus group B, type 5; experiment: Coxsackie virus infectivity after reagent treatment (TCID50 in FL cells); format: cell-based
Protocol: The FL cells were infected with the virus, and a 50% infection dose (unit: 50% tissue culture infectious dose [TCID50]) was calculated.
To eliminate the influence of serum contained in original viruses, a virus solution was previously 50 times diluted with PBS.

[2] = Measurement of pH of the reagents; format: physicochemical; details: summary Table 9
Source text: Also, the experiment was repeated to confirm reproducibility.

Feline calicivirus = Feline calicivirus infectivity after reagent treatment (TCID50 in CRFK cells); format: cell-based; details: equal amounts of virus and reagent, 3 minutes at room temperature
Protocol: To eliminate the influence of serum contained in the original virus, a virus solution was previously 5 times diluted with a diluent (Eagle's minimum essential medium, penicillin G, streptomycin). Equal amounts (35 μL) of the diluted virus solution and each reagent were mixed and allowed to react at room temperature for 3 minutes. Then, a ten-fold dilution series was prepared using the diluent.
Monolayer CRFK cells on a 96-well plate were washed with PBS one time and then the diluted virus solution was inoculated (50 μl/well). After incubation with a CO2 incubator for adsorption and penetration of the virus for 1 hour, the cells were washed with PBS one time, and then a maintenance solution (the same as the diluent) was added (100 μL/well), followed by culture. Three days after, the cells were fixed and stained after extension of CPE, and a 50% infectious dose (unit: 50% tissue culture infectious dose [TCID50]) was calculated using a Behrens-Kaerber method to measure viral infectivity.

Rotavirus Wa Strain = experiment: Rotavirus infectivity after reagent treatment (fluorescent staining of MA104 cells); details: equal amounts of virus and reagent, 3 minutes at room temperature; for Residual infectivity after treatment: MA104 cells
Protocol: Equal amounts (35 μL) of a virus solution and a reagent were mixed, followed by reaction at room temperature for 3 minutes. A 10-fold dilution series was formed using a diluent (MEM) and the MA104 cells on a cover slip (9×28 mm) were infected with 50 μL of the virus solution. After adsorption for 1 hour, the cells were washed with PBS one time and a growth medium (10% PBS-MEM) was added, followed by culture.
One day after, fluorescent staining was performed with anti-rotavirus antibody (monoclonal antibody: Abgene REMEI-1) and Alexa Fluor 488-labeled anti-mouse IgG antibody (SantaCruz Biotechnology), and positive cells were counted in a field of view under a fluorescent microscope (400 times) (average area of 20 fields of view). The number of positive cells per cover slip was calculated on the basis of the area of the field of view, and further infectivity per mL of virus solution was calculated (unit: CIU (cell infecting units)/ml; Kiyotani et al., Virology 177:65-74, 1990). When the number of positive cells was small, the positive cells were measured by observing the whole of the cover slip.

[3] = test system: Adenovirus (nonproliferating, adenovirus type-5-derived); experiment: Adenovirus infectivity after reagent treatment (fluorescent staining of FL cells); format: cell-based
Protocol: Monolayer FL cells (cell line contaminated with HeLa cells (derived from human cervical cancer epithelial cells)) on the cover slip (9×28 mm) were washed with PBS one time and then infected with a 50 μL of virus solution. After adsorption for 1 hour, the cells were washed with PBS one time, and then a maintenance solution (the same as the diluent) was added, followed by culture.
Two days after, fluorescent staining was performed with anti-adenovirus antibody (monoclonal antibody: Chemicon MAB805) and Alexa Fluor 488-labeled anti-mouse IgG antibody (SantaCruz Biotechnology), and positive cells were counted in a field of view under a fluorescent microscope (400 times) (average of 20 fields of view was calculated).

[4] = equal amounts of virus and reagent, 3 minutes at room temperature
[5] = equal amounts of virus and reagent, 3 minutes at room temperature, FL cells

SMILES	Anti-Coxsackie virus activity (in words) [1]	Effect (times) (to PBS) [1, 4]	Infectivity ratio (to PBS) [1, 4]	Infectivity (TCID50/ml) [1, 5] [TCID50/ml]	pH [2]	Effect (times) (to PBS) (Feline calicivirus)	Infectivity ratio (to PBS) (Feline calicivirus)	Infectivity (TCID50/ml) (Feline calicivirus; CRFK cells)	Infectivity ratio (to PBS) (Rotavirus Wa Strain)	Residual infectivity after treatment (Rotavirus Wa Strain) [CIU/ml]	Inactivation activity for adenovirus (in words) [3]	Effect (times) (to PBS) [3, 4]	Infectivity ratio (to PBS) [3, 4]	Residual infectivity after treatment [3, 5] [CIU/ml]
CCO [50% (v/v) ethanol, ethanol]	no anti-Coxsackie virus activity	1	1.778	3.2E+07	5.09	12	0.09	3.2E+07	0.06	6.2E+05	no inactivation ability	4	0.2	7.7E+07
CCO [80% (v/v) ethanol, ethanol]	–	–	–	–	–	–	–	–	0	0	–	–	–	–
